Columns and labels:
RET and ERK activation = assay: Activation of RET and ERK in TT cells; format: cell-based, human; conditions: concentration-dependent
ECA-109 cells = assay: Tumor cell proliferation in vitro; format: cell-based, human
[1] = Phase 1 clinical pharmacokinetics in plasma; format: in vivo, human; conditions: for AUC0-24, Mean (CV%) / AUC0-t, Mean (CV%) / CLz/F, Mean (CV%) / Cmax, Mean (CV%) / Tmax, median [Min-Max] / Vz/F, Mean (CV%) / t1/2z, Mean (CV%): Single dose; for AUC0-24,ss, Mean (CV%) / Cmax,ss, Mean (CV%) / Tmax,ss, median [Min-Max]: Steady State

COc1cc2c(Nc3ccc(Br)cc3F)ncnc2cc1OCCCCN(C)C.Cl.Cl [HA121-28, N-(4-bromo-2-fluorophenyl)-7-(4-(dimethylamino)butoxy)-6-methoxy quinazolin-4-amine dihydrochloride]
activation of RET and downstream ERK (RET and ERK activation): significantly inhibited | IC50 (ECA-109 cells): 6.663 ± 0.0545 µM | AUC0-24, Mean (CV%) ([1]; 25 mg (N=1)): 237.1 (-) h*ng/mL | AUC0-t, Mean (CV%) ([1]; 25 mg (N=1)): 906.8 (-) h*ng/mL | CLz/F, Mean (CV%) ([1]; 25 mg (N=1)): 18.5 (-) L/h | Cmax, Mean (CV%) ([1]; 25 mg (N=1)): 15.6 (-) ng/mL | Tmax, median [Min-Max] ([1]; 25 mg (N=1)): 4 [4,4] h | Vz/F, Mean (CV%) ([1]; 25 mg (N=1)): 2971.7 (-) L | t1/2z, Mean (CV%) ([1]; 25 mg (N=1)): 111.2 (-) h | AUC0-24, Mean (CV%) ([1]; 50 mg (N=1)): 283.0 (-) h*ng/mL | AUC0-t, Mean (CV%) ([1]; 50 mg (N=1)): 1645.1 (-) h*ng/mL | CLz/F, Mean (CV%) ([1]; 50 mg (N=1)): 19.5 (-) L/h | Cmax, Mean (CV%) ([1]; 50 mg (N=1)): 15.6 (-) ng/mL | Tmax, median [Min-Max] ([1]; 50 mg (N=1)): 24 [24,24] h | Vz/F, Mean (CV%) ([1]; 50 mg (N=1)): 3137.7 (-) L | t1/2z, Mean (CV%) ([1]; 50 mg (N=1)): 111.6 (-) h | AUC0-24, Mean (CV%) ([1]; 100 mg (N=4)): 725.9 (306.5) h*ng/mL | AUC0-t, Mean (CV%) ([1]; 100 mg (N=4)): 3460.0 (1126.6) h*ng/mL | CLz/F, Mean (CV%) ([1]; 100 mg (N=4)): 18.8 (4.8) L/h | Cmax, Mean (CV%) ([1]; 100 mg (N=4)): 46.4 (27.0) ng/mL | Tmax, median [Min-Max] ([1]; 100 mg (N=4)): 6 [4-24] h | Vz/F, Mean (CV%) ([1]; 100 mg (N=4)): 2303.3 (37.5) L | t1/2z, Mean (CV%) ([1]; 100 mg (N=4)): 89.1 (23.8) h | AUC0-24, Mean (CV%) ([1]; 200 mg (N=4)): 1884.6 (514.6) h*ng/mL | AUC0-t, Mean (CV%) ([1]; 200 mg (N=4)): 7763.0 (2539.2) h*ng/mL | CLz/F, Mean (CV%) ([1]; 200 mg (N=4)): 21.6 (7.0) L/h | Cmax, Mean (CV%) ([1]; 200 mg (N=4)): 115.5 (32.7) ng/mL | Tmax, median [Min-Max] ([1]; 200 mg (N=4)): 8 [8-10] h | Vz/F, Mean (CV%) ([1]; 200 mg (N=4)): 2627.1 (1416.0) L | t1/2z, Mean (CV%) ([1]; 200 mg (N=4)): 80.7 (15.3) h | AUC0-24, Mean (CV%) ([1]; 300 mg (N=4)): 3037.9 (854.0) h*ng/mL | AUC0-t, Mean (CV%) ([1]; 300 mg (N=4)): 11276.6 (2463.8) h*ng/mL | CLz/F, Mean (CV%) ([1]; 300 mg (N=4)): 19.1 (3.8) L/h | Cmax, Mean (CV%) ([1]; 300 mg (N=4)): 193.0 (70.1) ng/mL | Tmax, median [Min-Max] ([1]; 300 mg (N=4)): 8 [2-8] h | Vz/F, Mean (CV%) ([1]; 300 mg (N=4)): 2307.1 (724.2) L | t1/2z, Mean (CV%) ([1]; 300 mg (N=4)): 83.1 (16.6) h | AUC0-24, Mean (CV%) ([1]; 450 mg (N=7)): 6271.3 (2275.9) h*ng/mL | AUC0-t, Mean (CV%) ([1]; 450 mg (N=7)): 20218.4 (7301.9) h*ng/mL | CLz/F, Mean (CV%) ([1]; 450 mg (N=7)): 16.2 (6.6) L/h | Cmax, Mean (CV%) ([1]; 450 mg (N=7)): 374.7 (140.6) ng/mL | Tmax, median [Min-Max] ([1]; 450 mg (N=7)): 8 [4-8] h | Vz/F, Mean (CV%) ([1]; 450 mg (N=7)): 2009.5 (706.2) L | t1/2z, Mean (CV%) ([1]; 450 mg (N=7)): 87.6 (11.7) h | AUC0-24, Mean (CV%) ([1]; 600 mg (N=5)): 8403.6 (4593.9) h*ng/mL | AUC0-t, Mean (CV%) ([1]; 600 mg (N=5)): 26818.4 (14650.1) h*ng/mL | CLz/F, Mean (CV%) ([1]; 600 mg (N=5)): 19.7 (8.1) L/h | Cmax, Mean (CV%) ([1]; 600 mg (N=5)): 500.0 (224.3) ng/mL | Tmax, median [Min-Max] ([1]; 600 mg (N=5)): 8 [4-8] h | Vz/F, Mean (CV%) ([1]; 600 mg (N=5)): 2163.4 (719.0) L | t1/2z, Mean (CV%) ([1]; 600 mg (N=5)): 80.8 (19.4) h | AUC0-24, Mean (CV%) ([1]; 800 mg (N=3)): 9721.8 (2598.4) h*ng/mL | AUC0-t, Mean (CV%) ([1]; 800 mg (N=3)): 33030.6 (10820.6) h*ng/mL | CLz/F, Mean (CV%) ([1]; 800 mg (N=3)): 19.9 (9.2) L/h | Cmax, Mean (CV%) ([1]; 800 mg (N=3)): 610.0 (200.1) ng/mL | Tmax, median [Min-Max] ([1]; 800 mg (N=3)): 8 [4-8] h | Vz/F, Mean (CV%) ([1]; 800 mg (N=3)): 2001.6 (613.2) L | t1/2z, Mean (CV%) ([1]; 800 mg (N=3)): 74.1 (24.6) h | AUC0-24,ss, Mean (CV%) ([1]; 25 mg (N=1)): 1629.1 (-) h*ng/mL | Cmax,ss, Mean (CV%) ([1]; 25 mg (N=1)): 77.2 (-) ng/mL | Tmax,ss, median [Min-Max] ([1]; 25 mg (N=1)): 2 [2,2] h | AUC0-24,ss, Mean (CV%) ([1]; 50 mg (N=1)): 2728.6 (-) h*ng/mL | Cmax,ss, Mean (CV%) ([1]; 50 mg (N=1)): 122.0 (-) ng/mL | Tmax,ss, median [Min-Max] ([1]; 50 mg (N=1)): 4 [4,4] h | AUC0-24,ss, Mean (CV%) ([1]; 100 mg (N=4)): 4785.0 (1808.2) h*ng/mL | Cmax,ss, Mean (CV%) ([1]; 100 mg (N=4)): 219.0 (75.2) ng/mL | Tmax,ss, median [Min-Max] ([1]; 100 mg (N=4)): 8 [4-8] h | AUC0-24,ss, Mean (CV%) ([1]; 200 mg (N=4)): 11332.7 (4944.0) h*ng/mL
